Test results: US20100311714A1, “1H-IMIDAZO[4,5-c]QUINOLINONE COMPOUNDS” (priority 2009, published 2010)

What was measured:
[1] = tested on: PKB Ser473 phosphorylation in Rat1-myr-HA-p110 alpha cells; experiment: Reverse protein array, PKB Ser473 phosphorylation in Rat1-myr-HA-p110 alpha cells; assay type: cell-based; conditions: Rattus norvegicus, 0.5 h, 30 minutes compound incubation, read-out: p-PKB/IC50_alpha
[2] = tested on: PKB Ser473 phosphorylation in Rat1-myr-HA-p110 beta cells; experiment: Reverse protein array, PKB Ser473 phosphorylation in Rat1-myr-HA-p110 beta cells; assay type: cell-based; conditions: Rattus norvegicus, 0.5 h, 30 minutes compound incubation, read-out: p-PKB/IC50_beta

SMILES | IC50 [1] | IC50 [2]
COc1cc(-c2ccc3ncc4c(c3c2)n(-c2ccc(N)nc2C)c(=O)n4C)cnc1CO [Example 30.1, 1-(6-Amino-2-methyl-pyridin-3-yl)-8-(6-hydroxymethyl-5-methoxy-pyridin-3-yl)-3-methyl-1,3-dihydro-imidazo[4,5-c]quinolin-2-one] | 53.6 nM | 237 nM
Cc1nc(F)ccc1-n1c(=O)n(C)c2cnc3ccc(-c4cncc(N5CCC5)c4)cc3c21 [Example 7.6, 8-(5-Azetidin-1-yl-pyridin-3-yl)-1-(6-fluoro-2-methyl-pyridin-3-yl)-3-methyl-1,3-dihydro-imidazo[4,5-c]quinolin-2-one] | 34.4 nM | 22.8 nM
COCc1ncc(-c2ccc3ncc4c(c3c2)n(-c2cccnc2C)c(=O)n4C)cc1OC [Example 2.30, 8-(5-Methoxy-6-methoxymethyl-pyridin-3-yl)-3-methyl-1-(2-methyl-pyridin-3-yl)-1,3-dihydro-imidazo[4,5-c]quinolin-2-one] | 52.2 nM | 139 nM
COc1cc(-c2ccc3ncc4c(c3c2)n(-c2ccc(N3CC(F)(F)C3)nc2C)c(=O)n4C)cnc1CO [Example 24.4, 1-[6-(3,3-Difluoro-azetidin-1-yl)-2-methyl-pyridin-3-yl]-8-(6-hydroxymethyl-5-methoxy-pyridin-3-yl)-3-methyl-1,3-dihydro-imidazo[4,5-c]quinolin-2-one] | 22.3 nM | 44.1 nM
COc1ccc(-n2c(=O)n(C)c3cnc4ccc(-c5cnc(CO)c(OC)c5)cc4c32)c(OC)n1 [Example 8.14, 1-(2,6-Dimethoxy-pyridin-3-yl)-8-(6-hydroxymethyl-5-methoxy-pyridin-3-yl)-3-methyl-1,3-dihydro-imidazo[4,5-c]quinolin-2-one] | 35 nM | 56.7 nM
COc1ccc(-n2c(=O)n(C)c3cnc4ccc(-c5cnc(C(OC)OC)c(OC)c5)cc4c32)c(OC)n1 [Example 8.13, 8-(6-Dimethoxymethyl-5-methoxy-pyridin-3-yl)-1-(2,6-dimethoxy-pyridin-3-yl)-3-methyl-1,3-dihydro-imidazo[4,5-c]quinolin-2-one] | 208 nM | 212 nM
COc1cc(-c2ccc3ncc4c(c3c2)n(-c2ccc(N3CC[C@H](O)C3)nc2C)c(=O)n4C)cnc1CO [Example 32.7, 8-(6-Hydroxymethyl-5-methoxy-pyridin-3-yl)-1-[6-((S)-3-hydroxy-pyrrolidin-1-yl)-2-methyl-pyridin-3-yl]-3-methyl-1,3-dihydro-imidazo[4,5-c]quinolin-2-one] | 61.7 nM | 200 nM
COc1cc(-c2ccc3ncc4c(c3c2)n(-c2ccc(N3CCC(OC)C3)nc2C)c(=O)n4C)cnc1CO (centres unmarked) [Example 28.3, 8-(6-Hydroxymethyl-5-methoxy-pyridin-3-yl)-1-[6-(3-methoxy-pyrrolidin-1-yl)-2-methyl-pyridin-3-yl]-3-methyl-1,3-dihydro-imidazo[4,5-c]quinolin-2-one] | 44.5 nM | 44.5 nM
COc1cc(-c2ccc3ncc4c(c3c2)n(-c2ccc(F)nc2C)c(=O)n4C)cnc1CO [Example 7.10, 1-(6-Fluoro-2-methyl-pyridin-3-yl)-8-(6-hydroxymethyl-5-methoxy-pyridin-3-yl)-3-methyl-1,3-dihydro-imidazo[4,5-c]quinolin-2-one] | 123 nM | 96.6 nM
Cc1nc(N2CC(O)C2)ccc1-n1c(=O)n(C)c2cnc3ccc(-c4cncc(C(C)(C)O)c4)cc3c21 [Example 29.1, 1-[6-(3-Hydroxy-azetidin-1-yl)-2-methyl-pyridin-3-yl]-8-[5-(1-hydroxy-1-methyl-ethyl)-pyridin-3-yl]-3-methyl-1,3-dihydro-imidazo[4,5-c]quinolin-2-one] | 335 nM | 1100 nM
Cc1nc(N2CCC(O)C2)ccc1-n1c(=O)n(C)c2cnc3ccc(-c4cncc(C(C)(C)O)c4)cc3c21 (centres unmarked) [Example 27.5, 8-[5-(1-Hydroxy-1-methyl-ethyl)-pyridin-3-yl]-1-[6-(3-hydroxy-pyrrolidin-1-yl)-2-methyl-pyridin-3-yl]-3-methyl-1,3-dihydro-imidazo[4,5-c]quinolin-2-one] | 160 nM | 197 nM
COCc1ncc(-c2ccc3ncc4c(c3c2)n(-c2ccc(F)nc2C)c(=O)n4C)cc1OC [Example 7.7, 1-(6-Fluoro-2-methyl-pyridin-3-yl)-8-(5-methoxy-6-methoxymethyl-pyridin-3-yl)-3-methyl-1,3-dihydro-imidazo[4,5-c]quinolin-2-one] | 96.1 nM | 278 nM
COc1cc(-c2ccc3ncc4c(c3c2)n(-c2ccc(N3CCCC3)nc2C)c(=O)n4C)cnc1CO [Example 25.4, 8-(6-Hydroxymethyl-5-methoxy-pyridin-3-yl)-3-methyl-1-(2-methyl-6-pyrrolidin-1-yl-pyridin-3-yl)-1,3-dihydro-imidazo[4,5-c]quinolin-2-one] | 27.5 nM | 17.6 nM

The next molecules have a lower IC50 [1] than those just listed; values first:

IC50 [1] | IC50 [2] | SMILES
14.6 nM | 14.8 nM | CNC(=O)c1ccc(-c2ccc3ncc4c(c3c2)n(-c2cccnc2C)c(=O)n4C)cc1 [Example 2.4, N-Methyl-4-[3-methyl-1-(2-methyl-pyridin-3-yl)-2-oxo-2,3-dihydro-1H-imidazo[4,5-c]quinolin-8-yl]-benzamide]
< 4.57 nM | < 4.57 nM | CCNc1cc(-c2ccc3ncc4c(c3c2)n(-c2ccc(N3CCCC3)nc2C)c(=O)n4C)cnc1CO [Example 25.5, 8-(5-Ethylamino-6-hydroxymethyl-pyridin-3-yl)-3-methyl-1-(2-methyl-6-pyrrolidin-1-yl-pyridin-3-yl)-1,3-dihydro-imidazo[4,5-c]quinolin-2-one]
13.7 nM | 14.1 nM | Cn1c(=O)n(-c2cccnc2F)c2c3cc(-c4cnc5[nH]ccc5c4)ccc3ncc21 [Example 6.3, 1-(2-Fluoro-pyridin-3-yl)-3-methyl-8-(1H-pyrrolo[2,3-b]pyridin-5-yl)-1,3-dihydro-imidazo[4,5-c]quinolin-2-one]
< 4.57 nM | 8.6 nM | Cc1nc(N2CCC(O)C2)ccc1-n1c(=O)n(C)c2cnc3ccc(-c4cnc(N)c(C(F)(F)F)c4)cc3c21 (centres unmarked) [Example 27.3, 8-(6-Amino-5-trifluoromethyl-pyridin-3-yl)-1-[6-(3-hydroxy-pyrrolidin-1-yl)-2-methyl-pyridin-3-yl]-3-methyl-1,3-dihydro-imidazo[4,5-c]quinolin-2-one]
< 4.57 nM | 17.1 nM | COc1ccc(-n2c(=O)n(C)c3cnc4ccc(-c5cncc(N6CCC6)c5)cc4c32)c(OC)n1 [Example 8.11, 8-(5-Azetidin-1-yl-pyridin-3-yl)-1-(2,6-dimethoxy-pyridin-3-yl)-3-methyl-1,3-dihydro-imidazo[4,5-c]quinolin-2-one]
6.84 nM | 9.49 nM | Cc1ncccc1-n1c(=O)n(C)c2cnc3ccc(-c4cnc5[nH]ccc5c4)cc3c21 [Example 2.8, 3-Methyl-1-(2-methyl-pyridin-3-yl)-8-(1H-pyrrolo[2,3-b]pyridin-5-yl)-1,3-dihydro-imidazo[4,5-c]quinolin-2-one]
< 4.57 nM | 6.9 nM | CCNc1cc(-c2ccc3ncc4c(c3c2)n(-c2ccc(N(C)CCO)nc2C)c(=O)n4C)cnc1CO [Example 26.3, 8-(5-Ethylamino-6-hydroxymethyl-pyridin-3-yl)-1-{6-[(2-hydroxy-ethyl)-methyl-amino]-2-methyl-pyridin-3-yl}-3-methyl-1,3-dihydro-imidazo[4,5-c]quinolin-2-one]
13 nM | 20 nM | CNc1ncc(-c2ccc3ncc4c(c3c2)n(-c2ccc(N3CC[C@@H](O)C3)nc2C)c(=O)n4C)cn1 [Example 34.1, 1-[6-((R)-3-Hydroxy-pyrrolidin-1-yl)-2-methyl-pyridin-3-yl]-3-methyl-8-(2-methylamino-pyrimidin-5-yl)-1,3-dihydro-imidazo[4,5-c]quinolin-2-one]
< 4.57 nM | 20.4 nM | CCOc1ccc(-c2ccc3ncc4c(c3c2)n(-c2ccc(N3CCC(O)C3)nc2C)c(=O)n4C)cn1 (centres unmarked) [Example 27.4, 8-(6-Ethoxy-pyridin-3-yl)-1-[6-(3-hydroxy-pyrrolidin-1-yl)-2-methyl-pyridin-3-yl]-3-methyl-1,3-dihydro-imidazo[4,5-c]quinolin-2-one]
8 nM | 13 nM | CNc1ncc(-c2ccc3ncc4c(c3c2)n(-c2ccc(N3CC[C@H](O)C3)nc2C)c(=O)n4C)cc1Cl [Example 32.4, 8-(5-Chloro-6-methylamino-pyridin-3-yl)-1-[6-((S)-3-hydroxy-pyrrolidin-1-yl)-2-methyl-pyridin-3-yl]-3-methyl-1,3-dihydro-imidazo[4,5-c]quinolin-2-one]
9.1 nM | 7.4 nM | CNc1ncc(-c2ccc3ncc4c(c3c2)n(-c2ccc(N3CCC(OC)C3)nc2C)c(=O)n4C)cn1 (centres unmarked) [Example 28.2, 1-[6-(3-Methoxy-pyrrolidin-1-yl)-2-methyl-pyridin-3-yl]-3-methyl-8-(2-methylamino-pyrimidin-5-yl)-1,3-dihydro-imidazo[4,5-c]quinolin-2-one]
4.6 nM | 5.27 nM | CCNc1cc(-c2ccc3ncc4c(c3c2)n(-c2ccc(N3CC(F)(F)C(F)(F)C3)nc2C)c(=O)n4C)cnc1CO [Example 35.2, 8-(5-Ethylamino-6-hydroxymethyl-pyridin-3-yl)-3-methyl-1-[2-methyl-6-(3,3,4,4-tetrafluoro-pyrrolidin-1-yl)-pyridin-3-yl]-1,3-dihydro-imidazo[4,5-c]quinolin-2-one]
